Measured values as given in US7897769B2, “Intermediates for fluorinated dihydrotetrabenazine ether imaging agents and probes” (General Electric Company, priority 2007, dated 2011).

Target: T1, VMAT-2 (Rattus norvegicus, UniProt Q01827)
T1 construct: Novascreen Biosciences Corporation (contract assay provider) protocol Cat. No. 100-0751
Experiment: VMAT-2 binding affinity measurement (Novascreen protocol Cat. No. 100-0751)
Settings: for Ki: VMAT-2 binding affinity; for binding affinity for VMAT-2 (in words): relative to a DTBZ control
Method: VMAT-2 binding affinity measurements were carried out by Novascreen Biosciences Corporation (Hanover, Md., USA) using protocol Cat. No. 100-0751. Novascreen, Inc. is a commercial provider of biological assays for the pharmaceutical industry.

T1 sequence (Q01827 whole entry): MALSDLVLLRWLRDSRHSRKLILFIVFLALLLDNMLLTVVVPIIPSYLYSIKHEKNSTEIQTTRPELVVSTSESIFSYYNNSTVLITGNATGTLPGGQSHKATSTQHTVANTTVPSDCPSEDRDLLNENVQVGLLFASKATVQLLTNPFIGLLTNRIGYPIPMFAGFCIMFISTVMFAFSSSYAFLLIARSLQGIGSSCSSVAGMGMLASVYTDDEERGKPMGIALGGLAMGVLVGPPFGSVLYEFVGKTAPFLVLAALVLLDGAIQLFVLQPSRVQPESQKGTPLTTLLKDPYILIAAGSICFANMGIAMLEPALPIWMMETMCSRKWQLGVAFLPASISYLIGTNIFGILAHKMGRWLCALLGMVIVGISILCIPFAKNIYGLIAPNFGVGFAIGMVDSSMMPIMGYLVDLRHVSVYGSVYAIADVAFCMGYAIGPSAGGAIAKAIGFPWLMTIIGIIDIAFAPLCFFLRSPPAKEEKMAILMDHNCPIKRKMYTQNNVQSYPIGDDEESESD

Row | Ki | binding affinity for VMAT-2 (in words) | Structure (SMILES)
1 | 6.4 nM | very high binding affinity | COc1cc2c(cc1OC)[C@H]1C[C@@H](OCCCF)[C@H](CC(C)C)CN1CC2 [Compound 23]
2 | 3.2 nM | very high binding affinity | COc1cc2c(cc1OC)[C@H]1C[C@@H](OCCF)[C@H](CC(C)C)CN1CC2 [Compound 22]
